Results published in patent US4234546A, “Liquid/liquid extraction of nickel values” (Shell Oil Company, priority 1977, dated 1980).
Like-named read-outs stand apart in the source and are kept apart here. Each block holds one molecule with its values, some of them ahead of it.

From the text: The extent to which nickel values in the aqueous solution are transferred into the extractant, expressed in terms of a "distribution coefficient", is also of importance. The distribution coefficient after t minutes' agitation is defined as
wherein "a" is as defined hereinbefore and "c" is the nickel content of the aqueous phase, expressed in mg Ni/l.
The temperature in the vessel was held constant by circulating water through the space between the outer and the inner walls of the vessel. The vessel was provided with an inlet tube, a sampling cock at the bottom, a six-bladed turbine stirrer with a distance between the ends of the opposite tips of 2.8 cm, and four baffles, connected to the wall of the vessel and extending to the central axis over a distance of 0.7 cm. The stirrer speed was 2000 revolutions per minute.
100 ml of the starting organic extractant was introduced into the cylindrical vessel, the blades of the stirrer were positioned at the surface of the organic solution, stirring was started, and 100 ml of the starting aqueous solution was poured into the vessel. […] The temperature of the batch extraction mixture was held at 50° C. When equilibrium was reached, stirring was discontinued, the two phases were allowed to separate and the concentrations of the nickel in the organic phase and in the aqueous phase were determined. […] Stirring was again started and continued until equilibrium was attained at the higher pH. The two phases were allowed to separate and the concentrations of the nickel in the organic phase and in the aqueous phase were again determined. The procedure was continued in this manner to obtain equilibrium distribution coefficient data at several pH values.

log D (logarithm of nickel value extraction distribution coefficient) (pH 1.6): 0.14
log D (logarithm of nickel value extraction distribution coefficient) (pH 2.08): 0.87
Molecule: 1-(4-C10-14 -alkylphenyl)-1,2-nonanedione dioximes [Dioximes D]

log D (logarithm of nickel value extraction distribution coefficient) (pH 1.42): -0.30
log D (logarithm of nickel value extraction distribution coefficient) (pH 1.66): 0.10
log D (logarithm of nickel value extraction distribution coefficient) (pH 2): 0.80
log D (logarithm of nickel value extraction distribution coefficient) (pH 2.55): 1.76
Molecule: 1-(4-C10-14 -alkylphenyl)-1,2-propanedione dioximes [Dioximes C1]

log D (logarithm of nickel value extraction distribution coefficient) (pH 1.36): -0.38
log D (logarithm of nickel value extraction distribution coefficient) (pH 1.7): 0.12
log D (logarithm of nickel value extraction distribution coefficient) (pH 2.1): 0.82
log D (logarithm of nickel value extraction distribution coefficient) (pH 2.66): 1.84
Molecule: 2-(4-C10-14 -alkylphenyl)-2-hydroxyiminoethanal oximes [Dioximes B]

log D (logarithm of nickel value extraction distribution coefficient) (pH 1.58): -0.70
log D (logarithm of nickel value extraction distribution coefficient) (pH 1.89): -0.22
log D (logarithm of nickel value extraction distribution coefficient) (pH 2.04): 0.18
log D (logarithm of nickel value extraction distribution coefficient) (pH 2.7): 1.19
Molecule: CCCCCCCC(=NO)C(CCCCCCC)=NO [Dioxime A, 8,9-hexadecanedione dioxime, reference compound]
